Patent US12256739B2, “Herbicidal mixtures comprising L-glufosinate or its salt and at least one protoporphyrinogen-IX oxidase inhibitor” (BASF SE, priority 2017, dated 2025)

Columns and labels:
Assay in all cases: Post emergence treatment, pot test, herbicidal activity
Assay type in all cases: in vivo
CYPIR (Cyperus iria) = settings: scale from 0 to 100
Source text: (§1) Synergism can be described as an interaction where the combined effect of two or more compounds is greater than the sum of the individual effects of each of the compounds. The pres-ence of a synergistic effect in terms of percent control, between two mixing partners (X and Y) can be calculated using the Colby equation (Colby, S. R., 1967, Calculating Synergistic and Antagonistic Responses in Herbicide Combinations, Weeds, 15, 21-22):
(§2) When the observed combined control effect is greater than the expected (calculated) combined control effect (E), then the combined effect is synergistic.
(§3) However, the weed control afforded by the compounds, mixtures or compositions is not limited to these species. The analysis of synergism or antagonism between the mixtures or compositions was determined using Colby's equation.
(§4) The culture containers used were plastic flowerpots containing loamy sand with approximately 3.0% of humus as the substrate. The seeds of the test plants were sown separately for each species and/or resistant biotype. For the pre-emergence treatment, the active ingredients, which had been suspended or emulsified in water, were applied directly after sowing by means of finely distributing nozzles. The containers were irrigated gently to promote germination and growth and subsequently covered with transparent plastic hoods until the plants had rooted. This cover caused uniform germination of the test plants, unless this had been impaired by the active ingredients. For the post-emergence treatment, the test plants were first grown to a height of 3 to 15 cm, depending on the plant habit, and only then treated with the active ingredients which had been suspended or emulsified in water. For this purpose, the test plants were either sown directly and grown in the same containers, or they were first grown separately as seedlings and transplanted into the test containers a few days prior to treatment. Depending on the species, the plants were kept at 10-25° C. or 20-35° C., respectively. The test period extended to 20 days after treatment. During this time, the plants were tended, and their response to the individual treatments was evaluated. The evaluation was carried out by using a scale from 0 to 100. 100 means no emergence of the plants or complete destruction of at least the above-ground parts, and 0 means no damage, or normal course of growth. Data shown are the mean of two replications.
(§5) • L-Glufosinate: 5% EC formulation • Saflufenacil: 342 g/l SC formulation • Compound II-16: 5% EC formulation (Compound II-16: ethyl[3-[2-chloro-4-fluoro-5-(1-methyl-6-trifluoromethyl-2,4-dioxo-1,2,3,4-tetrahydropyrimidin-3-yl)phenoxy]-2-pyridyloxy]acetate) • Trifludimoxazin: 500 g/l SC formulation • Sulfentrazone: 480 g/l SC formulation

[1] = system: ERICA (Erigeron Canadensis, Conyza canadensis); settings: scale from 0 to 100
Source text: as §1, §2, §3, §4, §5

[2] = system: ECHCG (Echinochloa crus-galli)
Source text: as §1, §2, §3, §4, §5

With `CCOC(=O)COc1ncccc1Oc1cc(-n2c(=O)cc(C(F)(F)F)n(C)c2=O)c(F)cc1Cl` [Compound II-16, ethyl[3-[2-chloro-4-fluoro-5-(1-methyl-6-trifluoromethyl-2,4-dioxo-1,2,3,4-tetrahydropyrimidin-3-yl)phenoxy]-2-pyridyloxy]acetate] the “Herbicidal activity against CYPIR, Found” value (CYPIR (Cyperus iria); Compound II-16 alone, 0.25 g ai/ha) was 0.
For `CP(=O)(O)CC[C@H](N)C(=O)O` [L-Glufosinate, (2S)-2-amino-4-[hydroxy(methyl)phosphinoyl]butyric acid], the “Herbicidal activity against CYPIR, Found” value (CYPIR (Cyperus iria); L-Glufosinate alone, 200 g ai/ha) was 0, the “Herbicidal activity against ERICA, Found” value ([1]; L-Glufosinate alone, 75 g ai/ha) was 90 and the “Herbicidal activity against ECHCG, Found” value ([2]; L-Glufosinate alone, 200 g ai/ha, scale from 0 to 100) was 0. The “Herbicidal activity against ECHCG, Found” value ([2]; L-Glufosinate alone, 400 g ai/ha, scale from 0 to 100, mean of two replications) was 65.
In the case of `CC(C)N(C)S(=O)(=O)NC(=O)c1cc(-n2c(=O)cc(C(F)(F)F)n(C)c2=O)c(F)cc1Cl` [Saflufenacil, saflufenacil], the “Herbicidal activity against ECHCG, Found” value ([2]; Saflufenacil alone, 0.5 g ai/ha, scale from 0 to 100) is reported as 0.
With `Cc1nn(-c2cc(NS(C)(=O)=O)c(Cl)cc2Cl)c(=O)n1C(F)F` [Sulfentrazone, sulfentrazone] the “Herbicidal activity against ERICA, Found” value ([1]; Sulfentrazone alone, 1.25 g ai/ha) was 0 and the “Herbicidal activity against ERICA, Found” value ([1]; Sulfentrazone alone, 2.5 g ai/ha) was 0.
`C#CCN1C(=O)C(F)(F)Oc2cc(F)c(-n3c(=O)n(C)c(=S)n(C)c3=O)cc21` [Trifludimoxazin, trifludimoxazin] was tested, and the “Herbicidal activity against ECHCG, Found” value ([2]; Trifludimoxazin alone, 0.25 g ai/ha, scale from 0 to 100) was 10.
